Patent publication US12187758B2 (ROME Therapeutics, Inc., priority 2022, dated 2025)

Columns and labels:
[1] = system: interferon-stimulated gene (ISG) response; experiment: B6/JGpt-Trex1em1Cd1194/Gpt mouse model (ISG score); assay type: in vivo; settings: B6/JGpt-Trex1em1Cd1194/Gpt mice, 100 mg/kg p.o. daily for 5 days
Procedure: Exemplary compounds were tested for the ability to alter the interferon-stimulated gene (ISG) response in a B6/JGpt-Trex1em1Cd1194/Gpt mouse model. Assay procedures and results are described below.
Nine 8-10 week old B6/JGpt-Trex1em1Cd1194/Gpt mice were acclimated to the lab for at least 5 days. Compound 2 was prepared daily in a 20% PEG400 (pH 3.5) solution for p.o. administration. Compound 2 was administered for 5 days.
Compound 2 was administered daily from Day 1 to Day 5. All mice were euthanized 1 hour after the last dose administration on Day 5. Heart and skin were harvested and snap frozen in liquid nitrogen, and plasma (EDTA) was collected for bioanalysis. Total RNA was isolated and ISG score for each sample was determined as in Part IIIa of Example 108.
Fifteen 6-8 week old B6/JGpt-Trex1em1Cd1194/Gpt mice were acclimated to the lab for at least 5 days. Compound 67 was prepared daily in a 20% PEG400 (pH 3.5) solution for p.o. administration. […] was administered for 5 days.
Compound 67 was administered daily from Day 1 to Day 5. All mice were euthanized 1 hour after the last dose administration on Day 5. Heart and skin were harvested and snap frozen in liquid nitrogen, and plasma (EDTA) was collected for bioanalysis. Total RNA was isolated and ISG score for each sample was determined as in Part IIIa of Example 108.

[2] = system: THP1-Dual KO-TREX1 xenograft tumors; experiment: Altering IFN production in THP1 TREX1 KO xenografts; assay type: in vivo, CB-17 SCID female mice; settings: decitabine 5 mg/kg IP, test compound 10, 30, or 100 mg/kg PO once daily for 4 days; tumors 24 h post-last dose; FIG. 6
Procedure: Exemplary compounds 2, 25 and 40 were tested for their ability to alter IFN levels in THP1-Dual™ KO-TREX1 xenografts in mice. Assay procedures are described below.
CB-17 SCID female mice were inoculated subcutaneously with 10 million THP1-Dual™ KO-TREX1 cells in 200 μl PBS with Matrigel (1:1) and grouped when tumor volume reached 350-400 mm^3. Mice bearing THP1-Dual™ KO-TREX1 xenograft tumors were then separated into 5 groups. Three groups were administered: (1) decitabine (DAC) at 5 mg/kg IP, once daily, for 4 days, and (2) test compound at 10, 30, or 100 mg/kg, PO, once daily, for 4 days. One group was administered decitabine (DAC) at 5 mg/kg IP, once daily, for 4 days, and the test compound vehicle control. The final group was administered the vehicle control from both the test compound and the vehicle control from decitabine. Decitabine is formulated in sterile PBS, pH 7.4, and Compound 2, 25, and 40 were formulated in 20% PEG400 in PBS.
Tumors were harvested 24 h post-last dose administered on day 4, ground in PBS at 50 Hz for 5 min, and kept on ice for 30 min while being vortexed every 5 min. […] Equal amounts of proteins were added to 96-well black plates, and luciferase signal was measured using the QUANTI-Luc™ detection medium according to manufacturer's instructions. Luminescence was measured using the EnVision® 2105 Multimode Plate Reader. […]

[3] = system: THP1-Dual KO-TREX1 xenograft tumors; experiment: Altering IFN production in THP1-Dual KO-TREX1 mouse xenografts (Compound 67); assay type: in vivo, CB-17 SCID female mice; settings: decitabine 5 mg/kg SC, compound 0.3-100 mg/kg PO once daily for 5 days; tumors 4 h post-last dose; FIG. 9
Procedure: Exemplary Compound 67 was tested for its ability to alter IFN levels in THP1-Dual™ KO-TREX1 xenografts in mice. Assay procedures are described below.
CB-17 SCID female mice were inoculated subcutaneously with 10 million THP1-Dual™ KO-TREX1 cells in 200 μl PBS with Matrigel (1:1) and grouped at N=5 per treatment per sampling timepoint when tumor volume reached an average of 340 mm^3. Six groups were co-administered: (1) decitabine (DAC) at 5 mg/kg SC, once daily, for 5 days, and (2) test compound 67 at one of six doses (0.3 mg/kg PO, 1 mg/kg PO, 3 mg/kg PO, 10 mg/kg PO, 30 mg/kg PO, 100 mg/kg PO) once daily, for 5 days. Two additional groups were administered (1) decitabine and test compound vehicle control SC+PO, once daily, for 5 days, and (2) decitabine at 5 mg/kg SC, once daily, for 5 days. […]
Tumors were harvested 4 h post-last dose administered on day 5, grinded in PBS at 50 Hz for 5 min, kept on ice for 30 min while being vortexed every 5 min. […] Equal amounts of proteins were added to 96-well black plates, and luciferase signal was measured using the QUANTI-Luc™ detection medium according to manufacturer's instructions. Luminescence was measured using the EnVision® 2105 Multimode Plate Reader.
Experimental results are depicted in FIG. 9. […] In FIG. 9, IFN signal was measured in tumors harvested from mice 4 hours after the final decitabine and test compound dosing on day 5.

Row | SMILES | ISG score in the heart and skin [1] | inhibition of DAC-induced IFN signal in THP1 tumors [2] | inhibition of DAC-induced IFN signal in THP1 tumors [3]
1 | Nc1ccn([C@H]2C[C@H](O)[C@](CO)(CCl)O2)c(=O)n1 [Compound 2, 4-amino-1-((2R,4S,5R)-5-(chloromethyl)-4-hydroxy-5-(hydroxymethyl)tetrahydrofuran-2-yl)pyrimidin-2(1H)-one] | lowers the ISG score | potent inhibition of DAC-induced IFN signal | –
2 | Nc1ccn([C@@H]2O[C@@](CO)(CCl)[C@@H](O)[C@@H]2F)c(=O)n1 [Compound 40, 4-amino-1-((2R,3S,4R,5R)-5-(chloromethyl)-3-fluoro-4-hydroxy-5-(hydroxymethyl)tetrahydrofuran-2-yl)pyrimidin-2(1H)-one] | – | potent inhibition of DAC-induced IFN signal | –
3 | Nc1nc(=O)n([C@@H]2O[C@@](CO)(CCl)[C@@H](O)[C@@H]2F)cc1F [Compound 67, 4-amino-1-[(2R,3S,4R,5R)-5-(chloromethyl)-3-fluoro-4-hydroxy-5-(hydroxymethyl)oxolan-2-yl]-5-fluoropyrimidin-2-one] | lowers the ISG score | – | dose-response inhibition of DAC-induced IFN signal
